Positions of bridges follow the written chain, without caps; N, C: chain ends. Non-standard residues stand in square brackets, D forms with d. Residues, ends and D or L forms follow the SMILES beside them. No end group written: not given here. Trp(7-OH) = N[C@@H](Cc1c[nH]c2c(O)cccc12)C(=O)O; 2Nal = N[C@@H](Cc1ccc2ccccc2c1)C(=O)O
Assays:
[1] = test system: human melanoma cell lines RPMI-7951, SK MEL 28, SK MEL 31, SK MEL 24, A375; assay: Melanoma cell growth inhibition (Cell Titer-Glo 2.0 Luminescent Cell Viability Assay); type: cell-based; conditions: 72 hours incubation with compounds
Excerpt: The Cell Titer-Glo® 2.0 Luminescent Cell Viability Assay is a sensitive homogeneous method to determine the number of viable cells in culture. Detection is based on using the luciferase reaction to measure the amount of ATP from viable cells. The amount of ATP in cells correlates with cell viability. Within minutes after a loss of membrane integrity, cells lose the ability to synthesize ATP, and endogenous ATPases destroy any remaining ATP; thus the levels of ATP fall precipitously. The Cell Titer-Glo® 2.0 Reagent does three things upon addition to cells. It lyses cell membranes to release ATP; it inhibits endogenous ATPases, and it provides luciferin, luciferase and other reagents necessary to measure ATP using a bioluminescent reaction. The unique properties of a proprietary stable luciferase. There is a linear relationship (r2=0.99) between the luminescent signal and the number of cells from 0 to 50.000 cells per well. […]
Conditions: 37° C., air 95%; HEPA-filtered carbon dioxide (CO2) 5%, humidified atmosphere. • Cells are grown in 175 cm^2 flasks to 80-90% of confluency. • Culture media are aspirated and cell layer is briefly rinsed with Versen solution to remove all traces of serum. • 2 mL of Accutase is added to cells. • Flasks are returned to incubator for 5 min to allow cell detachment. • Add 6.0 mL of complete growth medium. • Single cell suspension is created by gently pipetting. • Cells are counted using a Hematocytometer and a suspension with the desired cell concentration is prepared. […]
Stock solutions (70 μL) are diluted with cell culture media to produce 500× serial dilutions and 10 of final compound dilutions are added to cells in assay plates to screen a series of 10 doses starting at […]. […] Luminescence intensity is measured for each well using the Tecan M 1000 microplate reader after 5 min of incubation with the Cell Titer-Glo® 2.0. The number of viable cells in culture is determined based on quantitation of the ATP present in each culture well. […] P values are calculated by using the Student's t test for absolute values. […]

[2] = target: T1, endothelin B receptor (ETBR) (Homo sapiens, UniProt P24530); assay: IC50 of BQ-788 against ETAR and ETBR (FIG. 3B); type: binding; conditions: from IC50 against ETAR and ETBR
T1 sequence (P24530 27-442): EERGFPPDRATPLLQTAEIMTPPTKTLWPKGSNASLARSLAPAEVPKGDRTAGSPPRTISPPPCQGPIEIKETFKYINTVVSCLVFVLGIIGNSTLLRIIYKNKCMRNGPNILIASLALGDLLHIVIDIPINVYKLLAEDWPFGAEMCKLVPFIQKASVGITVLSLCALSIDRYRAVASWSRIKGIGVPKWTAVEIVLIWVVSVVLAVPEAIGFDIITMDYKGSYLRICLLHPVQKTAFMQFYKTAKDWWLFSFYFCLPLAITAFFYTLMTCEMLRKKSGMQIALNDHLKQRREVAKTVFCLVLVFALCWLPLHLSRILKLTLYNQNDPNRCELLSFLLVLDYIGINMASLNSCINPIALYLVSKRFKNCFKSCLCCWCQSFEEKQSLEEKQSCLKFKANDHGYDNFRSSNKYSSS

[3] = target: endothelin A receptor (ETAR) (Homo sapiens, UniProt P25101); assay: ETAR IC50 (nM)
Excerpt: Table printed on a drawing sheet, FIG. 3
Head of the field: ETAR IC50 (nM)

[4] = target: human recombinant endothelin B receptor (ETBR) (human) (UniProt P24530); assay: not stated on the sheet or in the legend; the receptor source, species and competing ligand are not given, and the value may come from the literature
ETBR receptors = target: T2, ETBR receptors (Homo sapiens, UniProt P24530); conditions: physiological concentrations; cited from earlier work
T2 sequence (P24530 27-442): T1 sequence (P24530 27-442)

[5] = target: T3, human recombinant ETB receptor (ETBR) (Homo sapiens, UniProt P24530); assay: ET-1 Receptor Binding Assay ([125I]ET-1, CHO cell membranes expressing ETBR)
T3 construct: expressed in transfected cells; host or cells: CHO cells, stably transfected (vector pME18S-FL3); membranes prepared from them
T3 sequence (P24530 27-442): T1 sequence (P24530 27-442)
Procedure: Preparation of Membranes. CHO cell membranes are prepared by washing ETAR- or ETBR-transfected cells with phosphate buffered saline and centrifugation. […] The homogenates are centrifuged at 8,000×g for 10 minutes and supernatants are then centrifuged at 40,000×g for 1 hour at 4° C. The pellets are homogenized in buffer A and recentrifuged at 40,000×g for 1 hour.
(§1) The glass filters are washed three times with cold 50 mM Tris-HCl buffer containing 1 mM EDTA. The radioactivity on the washed filter is measured by using a Packard γ counter.

[6] = target: T4, human recombinant endothelin B receptor (ETBR) (human, UniProt P24530 27-442); assay: displacement of [125I]ET-1 from CHO-ETBR membranes, filtration
T4 construct: whole, on cells; The assay used membranes prepared from CHO-ETBR cells; also called ETB receptor; endothelin receptor type B
T4 sequence (looked up): T1 sequence (P24530 27-442)
Procedure: Preparation of Membranes. CHO cell membranes are prepared by washing ETAR- or ETBR-transfected cells with phosphate buffered saline and centrifugation. The resulting cell pellets are homogenized with a polytron (settings 8 for 30 seconds×2) in 5 volumes of buffer A containing 1 mM NaHCO₃, 5 mM EDTA (pH 8.3), 5 μg/ml Leupeptin, 5 μg/ml Pepstatin A, and 40 μM phenylmethylsulfonyl fluoride. The homogenates are centrifuged at 8,000×g for 10 minutes and supernatants are then centrifuged at 40,000×g for 1 hour at 4° C. The pellets are homogenized in buffer A and recentrifuged at 40,000×g for 1 hour. The resulting pellets are homogenized in buffer A supplemented with 130 mM NaCl, 5 mM Na₂HPO₄, and 1.5 mM KH₂PO₄ and stored at −70° C.
as §1

Molecule | growth of all tested human melanoma cell lines [1] | IC50 [6] [nM] | also measured
CC(C)C[C@@H]1NC(=O)[C@@H](C(C)C)NC(=O)[C@@H]2CCCN2C(=O)[C@@H](CC(=O)O)NC(=O)[C@@H](Cc2c[nH]c3ccccc23)NC1=O [BQ-123] (cyclo(L[dW][dD]P[dV])) | not |  | 
CCCC[C@@H](NC(=O)[C@@H](Cc1cn(C(=O)OC)c2ccccc12)NC(=O)[C@H](CC(C)(C)C)NC(=O)N1[C@H](C)CCC[C@@H]1C)C(=O)O [BQ-788] | inhibited |  | binding selectivity ETBR over ETAR [2]: selectively binds to ETBR over ETAR; IC50 [3]: 280 nM
BQ-788 (peptide) |  |  | IC50 [4]: 1.2 nM
ET-2: cognate endothelin ligand, 21-amino acid peptide (CSCSSWLDKECVYFCHLDIIW; ends and bridges not checked; cysteine pairing not given here; UniProt P20800 49-69, looked up) |  |  | Kd (ETBR receptors): 0.015 nM
GNWHGTAPDWFFNYYW [Lasso 1] | inhibited |  | 
MTEQSEQTPAEYIPPMLVEVGEFTEDTLGNWHGTAPDWFFNYYW [Lasso 18] |  |  | IC50 [5]: > 5000 nM
MTEQSEQTPAEYIPPMLVEVGEFTEDTLGNWHGTSPDWFFNYYW [Lasso 20] |  |  | IC50 [5]: > 5000 nM
GNWHGTAPDWFFNYYNIIW (lactam N-9, also called Lasso 48) [lasso peptide having primary sequence of SEQ ID NO: 48] |  | > 70 | 
GNWHGTAPDWFFNYY[2Nal] (lactam N-9, also called Lasso 54) [lasso peptide having primary sequence of SEQ ID NO: 54] |  | 6.3 | 
GNWHGTSPDWFFNYY[Trp(7-OH)] (lactam N-9, also called Lasso 4) [lasso peptide having primary sequence of SEQ ID NO: 4] |  | 8 | 
